Results from article PMC7587962, “Evaluation of Cytotoxicity and α-Glucosidase Inhibitory Activity of Amide and Polyamino-Derivatives of Lupane Triterpenoids” (Molecules, 2020).
Where two headings read alike, the source gives them in different places.

Key:
SNB-19 = system: SNB-19; design: method as in PMID 25405285; conditions: standard drugs used by NCI as control; cited from earlier work
MDA-MB-435 [1] = system: MDA-MB-435; design: method as in PMID 25405285; conditions: standard drugs used by NCI as control; cited from earlier work
SK-MEL-2 = system: SK-MEL-2; design: method as in PMID 25405285; conditions: standard drugs used by NCI as control; cited from earlier work
HL-60(TB) = assay: NCI-60 SRB screen: leukemia HL-60(TB); type: cell-based; conditions: Homo sapiens, 48 h, HL-60(TB)
K-562 = assay: NCI-60 SRB screen: leukemia K-562; type: cell-based, human; conditions: K-562
MOLT-4 = assay: NCI-60 SRB screen: leukemia MOLT-4; type: cell-based; conditions: Homo sapiens, 48 h, MOLT-4
RPMI-8226 = assay: NCI-60 SRB screen: leukemia RPMI-8226; type: cell-based; conditions: Homo sapiens, 48 h, RPMI-8226
A549/ATCC = assay: NCI-60 SRB screen: non-small cell lung cancer A549/ATCC; type: cell-based, human; conditions: A549/ATCC
NCI-H23 = assay: NCI-60 SRB screen: non-small cell lung cancer NCI-H23; type: cell-based, human; conditions: NCI-H23
NCI-H460 = assay: NCI-60 SRB screen: non-small cell lung cancer NCI-H460; type: cell-based; conditions: Homo sapiens, 48 h, NCI-H460
NCI-H522 = assay: NCI-60 SRB screen: non-small cell lung cancer NCI-H522; type: cell-based, human; conditions: NCI-H522
SF-268 = assay: NCI-60 SRB screen: CNS cancer SF-268; type: cell-based, human; conditions: SF-268
SF-539 = assay: NCI-60 SRB screen: CNS cancer SF-539; type: cell-based, human; conditions: SF-539
SNB-75 = assay: NCI-60 SRB screen: CNS cancer SNB-75; type: cell-based, human; conditions: SNB-75
LOX IMVI = assay: NCI-60 SRB screen: melanoma LOX IMVI; type: cell-based, human
M14 = assay: NCI-60 SRB screen: melanoma M14; type: cell-based, human; conditions: M14
MDA-MB-435 [2] = assay: NCI-60 SRB screen: melanoma MDA-MB-435; type: cell-based, human; conditions: MDA-MB-435
SK-MEL-28 = assay: NCI-60 SRB screen: melanoma SK-MEL-28; type: cell-based, human; conditions: SK-MEL-28
UACC-62 = assay: NCI-60 SRB screen: melanoma UACC-62; type: cell-based, human; conditions: UACC-62
OVCAR-3 = assay: NCI-60 SRB screen: ovarian cancer OVCAR-3; type: cell-based, human; conditions: OVCAR-3
OVCAR-4 = assay: NCI-60 SRB screen: ovarian cancer OVCAR-4; type: cell-based; conditions: Homo sapiens; OVCAR-4; five concentrations, 48 h, SRB; read-out: GI50
OVCAR-5 = assay: NCI-60 SRB screen: ovarian cancer OVCAR-5; type: cell-based, human; conditions: OVCAR-5
OVCAR-8 = assay: NCI-60 SRB screen: ovarian cancer OVCAR-8; type: cell-based, human; conditions: OVCAR-8
SK-OV-3 = assay: NCI-60 SRB screen: ovarian cancer SK-OV-3; type: cell-based, human; conditions: SK-OV-3
786-0 = assay: NCI-60 SRB screen: renal cancer 786-0; type: cell-based, human; conditions: 786-0
ACHN = assay: NCI-60 SRB screen: renal cancer ACHN; type: cell-based, human
CAKI-1 = assay: NCI-60 SRB screen: renal cancer CAKI-1; type: cell-based, human; conditions: CAKI-1
SN12C = assay: NCI-60 SRB screen: renal cancer SN12C; type: cell-based, human
PC-3 = assay: NCI-60 SRB screen: prostate cancer PC-3; type: cell-based, human; conditions: PC-3
MCF7 = assay: NCI-60 SRB screen: breast cancer MCF7; type: cell-based; conditions: Homo sapiens, 48 h, MCF7
HS 578T = assay: NCI-60 SRB screen: breast cancer HS 578T; type: cell-based, human; conditions: HS 578T
BT-549 = assay: NCI-60 SRB screen: breast cancer BT-549; type: cell-based, human; conditions: BT-549
T-47D = assay: NCI-60 SRB screen: breast cancer T-47D; type: cell-based, human; conditions: T-47D
MDA-MB-468 = assay: NCI-60 SRB screen: breast cancer MDA-MB-468; type: cell-based, human
[3] = system: 60 human tumor cell lines; assay: cells
Melanoma subpanel = assay: NCI-60 screen, subpanel Melanoma
Ovarian Cancer subpanel = assay: NCI-60 screen, subpanel Ovarian Cancer
[4] = single dose 10 µM, read-out: Percentage Cell Growth
[5] = five concentrations, SRB, read-out: GI50
[6] = Homo sapiens, five concentrations, 48 h, SRB, read-out: GI50

## COc1cccc2c1C(=O)c1c(O)c3c(c(O)c1C2=O)C[C@@](O)(C(=O)CO)C[C@@H]3O[C@H]1C[C@H](N)[C@H](O)[C@H](C)O1 [DRB, doxorubicin]
SNB-19
  GI50: 0.04 µM
MDA-MB-435 [1]
  GI50: 0.25 µM
SK-MEL-2
  GI50: 0.17 µM

## C=C(C)[C@@H]1CC[C@]2(C(=O)NCCNCCNCCN)CC[C@]3(C)[C@H](CC[C@@H]4[C@@]5(C)CCC(=O)C(C)(C)[C@@H]5CC[C@]43C)[C@@H]12 [Compound 11]
HL-60(TB); [4]
  activity at 10 µM: -35.6%
HL-60(TB); [5]
  GI50: 8.88 µM
K-562; Homo sapiens, K562, five concentrations, 48 h, SRB, read-out: GI50
  GI50: 8.2 µM
K-562; single dose 10 µM
  Percentage Cell Growth: −16.99%
MOLT-4; [4]
  activity at 10 µM: -16.3%
MOLT-4; [5]
  GI50: 6.96 µM
RPMI-8226; [4]
  activity at 10 µM: -30.7%
RPMI-8226; [5]
  GI50: 6.78 µM
A549/ATCC; single dose 10 µM
  Percentage Cell Growth: −76.50%
A549/ATCC; [6]
  GI50: 7.69 µM
NCI-H23; [6]
  GI50: 9.14 µM
NCI-H23; single dose 10 µM
  Percentage Cell Growth: −35.23%
NCI-H460; [4]
  activity at 10 µM: -90.9%
NCI-H460; [5]
  GI50: 9.4 µM
NCI-H522; [6]
  GI50: 8.72 µM
NCI-H522; single dose 10 µM
  Percentage Cell Growth: −69.70%
SF-268; [6]
  GI50: 7.53 µM
SF-268; single dose 10 µM
  Percentage Cell Growth: −38.68%
SF-539; [6]
  GI50: 7.53 µM
SF-539; single dose 10 µM
  Percentage Cell Growth: −92.71%
SNB-75; [6]
  GI50: 6.26 µM
SNB-75; single dose 10 µM
  Percentage Cell Growth: −41.55%
LOX IMVI; [6]
  GI50: 8.72 µM
LOX IMVI; single dose 10 µM
  Percentage Cell Growth: −68.23%
M14; [6]
  GI50: 8.38 µM
M14; single dose 10 µM
  Percentage Cell Growth: −62.82%
MDA-MB-435 [2]; [6]
  GI50: 8.7 µM
MDA-MB-435 [2]; single dose 10 µM
  Percentage Cell Growth: −49.89%
SK-MEL-28; [6]
  GI50: 8.49 µM
SK-MEL-28; single dose 10 µM
  Percentage Cell Growth: −73.91%
UACC-62; [6]
  GI50: 8.96 µM
UACC-62; single dose 10 µM
  Percentage Cell Growth: −77.94%
OVCAR-3; [6]
  GI50: 7.65 µM
OVCAR-3; single dose 10 µM
  Percentage Cell Growth: −72.48%
OVCAR-4
  GI50: 7.39 µM
OVCAR-5; [6]
  GI50: 8.78 µM
OVCAR-5; single dose 10 µM
  Percentage Cell Growth: −44.11%
OVCAR-8; [6]
  GI50: 8.41 µM
OVCAR-8; single dose 10 µM
  Percentage Cell Growth: −75.03%
SK-OV-3; [6]
  GI50: 10.6 µM
SK-OV-3; single dose 10 µM
  Percentage Cell Growth: 70.49%
786-0; single dose 10 µM
  Percentage Cell Growth: −84.46%
786-0; [6]
  GI50: 7.8 µM
ACHN; [6]
  GI50: 13.8 µM
ACHN; single dose 10 µM
  Percentage Cell Growth: −83.29%
CAKI-1; single dose 10 µM
  Percentage Cell Growth: −8.79%
CAKI-1; [6]
  GI50: 5.87 µM
SN12C; [6]
  GI50: 7.56 µM
SN12C; single dose 10 µM
  Percentage Cell Growth: −88.48%
PC-3; [6]
  GI50: 6.26 µM
PC-3; single dose 10 µM
  Percentage Cell Growth: −24.64%
MCF7; [4]
  activity at 10 µM: -58%
MCF7; [5]
  GI50: 7.38 µM
HS 578T; single dose 10 µM
  Percentage Cell Growth: 47.76%
HS 578T; [6]
  GI50: 8.3 µM
BT-549; single dose 10 µM
  Percentage Cell Growth: 58.31%
BT-549; [6]
  GI50: 8.91 µM
T-47D; Homo sapiens, T47D, five concentrations, 48 h, SRB, read-out: GI50
  GI50: 7.52 µM
T-47D; single dose 10 µM
  Percentage Cell Growth: −4.36%
MDA-MB-468; [6]
  GI50: 8.09 µM
MDA-MB-468; single dose 10 µM
  Percentage Cell Growth: −49.06%
[3]; read-out: GI50 ranges against all panels of NCI60
  GI50: 5.6 to 50 µM
[3]; read-out: MID a, average sensitivity of all cell line (GI50-MID)
  GI50: 9.17 µM
Melanoma subpanel
  MID b, average sensitivity of all cell line of particular subpanel: 12.84 µM
  Selectivity, ratio MID a: MID b: 0.71
Ovarian Cancer subpanel
  MID b, average sensitivity of all cell line of particular subpanel: 8.24 µM
  Selectivity, ratio MID a: MID b: 1.11
